Experimental data reported in US20110160594A1 (priority 2008, published 2011).

Tested on: Pyricularia oryzae
Type: cell-based
Conditions: liquid culture, incubation with compound 24-48 h

Molecule | branch of the dendrogram of IR spectra (FIG. 8)
COC(=O)N(OC)c1ccccc1COc1ccn(-c2ccc(Cl)cc2)n1 [pyraclostrobin] | clustered together in the second branch
CCCCC(C#N)(Cn1cncn1)c1ccc(Cl)cc1 (stereo not drawn) [myclobutanil] | third branch of the dendrogram
Fc1ccc([C@]2(Cn3cncn3)O[C@H]2c2ccccc2Cl)cc1 (racemic) [epoxiconazole] | third branch of the dendrogram
CNC(=O)/C(=N/OC)c1ccccc1CO/N=C(C)/C(=N/OC)C(/C)=N/OC [orysastrobin] | clustered together in the second branch
propioconazole | third branch of the dendrogram
CO/C=C(/C(=O)OC)c1ccccc1Oc1cc(Oc2ccccc2C#N)ncn1 [azoxystrobin] | clustered together in the second branch
